{"source": "paper PMC2903893", "about": "(Journal of the American Chemical Society, 2009)", "key": {"PKC": {"test_system": "PKC", "settings": "read-out: PKC IC50, cited from earlier work"}, "protein kinase C (PKC)": {"target": "protein kinase C (PKC)", "format": "biochemical", "settings": "read-out: PKC IC50; whole enzyme with regulatory and catalytic domains"}, "PKCβI": {"test_system": "PKCβI", "settings": "read-out: PKCβI IC50; ref 29 (ruboxistaurin), 30 (enzastaurin); cited from earlier work"}, "PKCβII": {"test_system": "PKCβII", "settings": "read-out: PKCβII IC50; ref 29 (ruboxistaurin), 30 (enzastaurin); cited from earlier work"}, "PKA": {"test_system": "PKA", "settings": "read-out: PKA IC50; cited from earlier work"}, "PPK": {"test_system": "PPK", "settings": "read-out: PPK IC50; cited from earlier work"}, "JHU-012 Head&Neck": {"test_system": "JHU-012 Head&Neck", "assay": "Cancer cell growth inhibition with and without light, JHU-012", "format": "cell-based", "settings": "JHU-012, with vs without light exposure"}, "nine cancer cell lines": {"test_system": "nine cancer cell lines", "assay": "cells", "format": "cell-based"}, "[1]": {"format": "physicochemical", "settings": "65 °C"}, "[2]": {"assay": "Absorption of the perylenequinone chromophore", "format": "physicochemical"}, "[3]": {"settings": "cited from earlier work"}}, "note": "Where two headings read alike, the source gives them in different places."}
{"compound": "COc1c(O)c2c(=O)cc(OC)c3c4c(OC)cc(=O)c5c(O)c(OC)c(CC(C)O)c(c(c1CC(C)O)c23)c54", "note": "(single isomer, unassigned; (-)) [(−)-1, Calphostin D]", "values": [{"measurement": "IC50", "setting": "PKC; Table 3 footnote a, ref [23]", "result": 6400, "unit": "nM"}]}
{"compound": "Hypocrellin [ent-4]", "values": [{"measurement": "IC50", "setting": "protein kinase C (PKC)", "result": 400, "unit": "nM"}]}
{"compound": "CN(C)C[C@@H]1CCn2cc(c3ccccc32)C2=C(C(=O)NC2=O)c2cn(c3ccccc23)CCO1", "note": "[ruboxistaurin]", "values": [{"measurement": "IC50", "setting": "PKCβI", "result": 4.7, "unit": "nM"}, {"measurement": "IC50", "setting": "PKCβII", "result": "[…]"}]}
{"compound": "Cn1cc(C2=C(c3cn(C4CCN(Cc5ccccn5)CC4)c4ccccc34)C(=O)NC2=O)c2ccccc21", "note": "[enzastaurin]", "values": [{"measurement": "IC50", "setting": "PKCβI", "result": 30, "unit": "nM"}, {"measurement": "IC50", "setting": "PKCβII", "result": 30, "unit": "nM"}]}
{"compound": "COc1c(C[C@@H](C)OC(=O)Oc2ccc(O)cc2)c2c3c(C[C@@H](C)OC(=O)c4ccccc4)c(OC)c(=O)c4c(O)cc(OC)c(c5c(OC)cc(O)c(c1=O)c52)c43", "note": "[1c, Calphostin C, reference compound]", "values": [{"measurement": "IC50", "setting": "PKC", "result": "50 to 460", "unit": "nM"}, {"measurement": "IC50", "setting": "PKA", "result": "> 100000", "unit": "nM"}, {"measurement": "IC50", "setting": "PPK", "result": "> 100000", "unit": "nM"}]}
{"compound": "COc1c(O)c2c(=O)cc(OC)c3c4c(OC)cc(=O)c5c(O)c(OC)c(CC(C)OC(=O)c6ccccc6)c(c(c1CC(C)OC(=O)c1ccccc1)c23)c54", "note": "(stereo not shown) [1a, calphostin A]", "values": [{"measurement": "IC50", "setting": "PKC; ref 22b", "result": 250, "unit": "nM"}]}
{"compound": "COc1c(CC(C)O)c2c3c(CC(C)O)c(OC)c(=O)c4c(O)cc5c(c6c(cc(O)c(c1=O)c62)OCO5)c43", "note": "(stereo not shown) [compound 3, Cercosporin]", "values": [{"measurement": "IC50", "setting": "protein kinase C (PKC)", "result": 600, "unit": "nM"}, {"measurement": "photopotentiation", "setting": "JHU-012 Head&Neck", "result": 4.9, "unit": "fold"}, {"measurement": "CC50", "setting": "nine cancer cell lines; read-out: CC50 across the series of cell lines", "result": "120 to 270", "unit": "nM"}, {"measurement": "ΔG^‡ atropisomerization", "setting": "[1]; DMSO", "result": 28.2, "unit": "kcal/mol"}, {"measurement": "ΔG^‡ atropisomerization", "setting": "[1]; benzene", "result": "27.4 (benzene) kcal/mol"}, {"measurement": "ΔG^‡ atropisomerization", "setting": "[1]; benzene, listed as cercosporin", "result": 27.4, "unit": "kcal/mol"}, {"measurement": "ε^670", "setting": "[2]", "result": 160, "unit": "M⁻¹ cm⁻¹"}, {"measurement": "IC50", "setting": "PKC", "result": "600 to 1300", "unit": "nM"}, {"measurement": "IC50", "setting": "PKA", "result": "> 500000", "unit": "nM"}, {"measurement": "IC50", "setting": "PPK", "result": "> 180000", "unit": "nM"}, {"measurement": "atropisomerization t1/2", "setting": "[3]; 60 °C, DMSO", "result": 48, "unit": "h"}, {"measurement": "ΔG^‡ atropisomerization", "setting": "[3]; acetylacetone", "result": "27.0[5] (acetylacetone) kcal/mol"}]}
{"compound": "COc1c2c3c4c(c(OC)c(=O)c5c(O)cc(OC)c(c6c(OC)cc(O)c(c1=O)c63)c54)[C@@H](C(C)=O)[C@@](C)(O)C2", "note": "[compound 4, Hypocrellin A]", "values": [{"measurement": "IC50", "setting": "protein kinase C (PKC)", "result": 4500, "unit": "nM"}, {"measurement": "growth inhibition, hypocrellin A (4) compared with hypocrellin (ent-4)", "setting": "nine cancer cell lines", "result": "nearly identical activity"}]}
